Reference: patent publication US20260206761A1, “HETEROARYL-TRIAZOLE COMPOUNDS AS PESTICIDES” (Bayer Aktiengesellschaft, priority 2019, published 2026)

Key:
Format in all cases: in vivo
[1] = tested on: green peach aphid (Myzus persicae); test: Myzus persicae spray test; conditions: 120 h, after 5 days; for mortality at 100 g/ha: application rate 100 g/ha; for mortality at 500 g/ha: application rate 500 g/ha
In short: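 Chinese cabbage leaf disks carrying all instars of M. persicae sprayed with compound in acetone/DMF, diluted in water with 1000 ppm alkylarylpolyglycol ether emulsifier. Percent mortality scored after 5 days (100% = all aphids killed).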

[2] = tested on: green peach aphid (Myzus persicae); test: Myzus persicae oral test; conditions: 120 h, application rate 4 ppm, after 5 days
In short: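 Aphids of mixed population ingest the compound preparation by sucking through a parafilm sheet stretched over wells holding test solution plus IPL41 insect medium (33%+15% sugar). Kill rate in percent is determined five days later.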

[3] = tested on: larvae of the banded cucumber beetle (Diabrotica balteata); test: Diabrotica balteata spray test; conditions: 168 h, after 7 days, read-out: activity (efficacy: seedlings grown); for pest or weed control at 100 g/ha: application rate 100 g/ha (=32 pg/well); for pest or weed control at 500 g/ha: application rate 500 g/ha (=160 pg/well)
In short: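 Read-out is % efficacy at day 7, 0% meaning no seedling growth and 100% growth equal to uninfested untreated controls. Test solutions (acetone/DMF concentrate diluted with water carrying 1000 ppm emulsifier) were sprayed onto 1-day-germinated wheat seeds, 5 per well, before infestation with 10-20 larvae.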

[4] = tested on: fall armyworm larvae (Spodoptera frugiperda); test: Spodoptera frugiperda spray test; conditions: 168 h, read-out: activity (mortality)
In short: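 Larvae of fall armyworm placed on dried maize leaf sections previously sprayed with emulsified compound (acetone/DMF solvent, water with 1000 ppm emulsifier). Percent of caterpillars killed recorded on day 7, 0–100% scale.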

[5] = tested on: Musca domestica strain WHO-N; test: Musca domestica test (MUSCDO surface treatment & contact assay); conditions: 24 hours after contact, read-out: efficacy (mortality); for mortality at 20 mg/m2: surface concentration 20 mg/m^2, exposure 30 minutes
Experimental: Musca domestica Test (MUSCDO Surface Treatment & Contact Assay)
(§1) Solvent: Aceton+2000 ppm rapeseed oil methyl ester (RME)
(§2) In order to produce a sufficient, active ingredient containing solution it is necessary to solve the test compound in the solvent-mix (acetone at 2 mg/ml/RME 2000 ppm). This solution is pipetted onto a glazed tile and after evaporation of the acetone, adult flies of the species Musca domestica strain WHO—N are placed onto the dried surface. The exposure time is 30 minutes. Mortality in percent (%) is determined 24 hours after contact of the insects to the treated surface. 100% mortality means that all tested insects are dead, whereas 0% means that no insect died.

[6] = tested on: larvae of the southern green stink bug (Nezara viridula); test: Nezara viridula spray test; conditions: 96 h, after 4 days; for mortality at 100 g/ha: application rate 100 g/ha; for mortality at 500 g/ha: application rate 500 g/ha
In short: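 Larva-infested barley (Hordeum vulgare) plants received a spray of test solution prepared from an acetone/DMF concentrate diluted in emulsifier-containing water (1000 ppm). Percent kill read 4 days later; 0% means no stink bugs dead.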

[7] = tested on: adult cat fleas (Ctenocephalides felis); test: Ctenocephalides felis in-vitro contact test, adult cat flea; conditions: application rate 5 μg/cm^2 (=500 g/ha), after 48 hours, read-out: activity (efficacy: fleas dead or moribund)
In short: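 Efficacy, as % of fleas dead or moribund, was read 48 h after 5-10 adult cat fleas were confined in glass tubes whose walls carried dried compound film (900 ppm, […]). Fleas failing to escape upward from a 45-50° C plate within 5 min counted as dead or moribund.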

[8] = tested on: adult unfed cat fleas (Ctenocephalides felis); test: Ctenocephalides felis oral test; conditions: 48 h, read-out: activity (mortality)
In short: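 About 20 adult unfed fleas fed through parafilm on cattle blood containing compound (DMSO stock diluted in blood), blood held at 37 °C and fleas at room temperature. Mortality (%) scored after 2 days.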

[9] = tested on: Anopheles funestus strain FUMOZ-R; test: Anopheles funestus test (ANPHFU surface treatment & contact assay); conditions: 24 hours after contact, read-out: efficacy (mortality); for mortality at 4 mg/m2: surface concentration 4 mg/m^2, exposure 30 minutes; for mortality at 20 mg/m2: surface concentration 20 mg/m^2, exposure 30 minutes
Experimental: Anopheles funestus Test (ANPHFU Surface Treatment & Contact Assay)
as §1
as §2, with “mosquitoes” for “flies”, “Anopheles funestus” for “Musca domestica”, “FUMOZ-R (Hunt et al., Med. Vet. Entomol. 2005 September; 19(3): 271-275)” for “WHO—N”

[10] = tested on: Aedes aegypti strain MONHEIM; test: Aedes aegypti test (AEDSAE surface treatment & contact assay); conditions: 24 hours after contact, read-out: efficacy (mortality); for mortality at 4 mg/m2: surface concentration 4 mg/m^2, exposure 30 minutes; for mortality at 20 mg/m2: surface concentration 20 mg/m^2, exposure 30 minutes
In short: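 Percent mortality was read 24 h after adult MONHEIM mosquitoes were held for 30 min on a tile treated with compound. Compound applied from acetone solution (2 mg/ml) containing 2000 ppm rapeseed oil methyl ester, after evaporation.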

[11] = tested on: Rhipicephalus microplus larvae (strain Parkhurst, resistant against synthetic pyrethroids); test: Rhipicephalus (Boophilus) microplus in-vitro contact test, larval cattle tick; conditions: after 48 hours, read-out: activity (efficacy: larvae dead or moribund); for pest or weed control at 100 g/ha: application rate 1 pg/cm^2 (=100 g/ha); for pest or weed control at 500 g/ha: application rate 5 pg/cm^2 (=500 g/ha)
In short: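 Larvae (20-50 per tube) exposed to dry compound film on glass tube walls, 5 μg/cm^2 at 900 ppm, applied from acetone. After 48 h at 27° C./85% RH, tubes tapped and negative geotaxis scored; efficacy as percent dead or moribund larvae.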

[12] = tested on: adult brown dog ticks (Rhipicephalus sanguineus); test: Rhipicephalus sanguineus in-vitro contact test, adult brown dog ticks; conditions: after 48 hours, read-out: activity (efficacy: ticks dead or moribund); for pest or weed control at 100 g/ha: application rate 1 pg/cm^2 (=100 g/ha); for pest or weed control at 5 µg/cm2, 500 g/ha: application rate 5 μg/cm^2 (=500 g/ha)
In short: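 Efficacy is % of adult ticks dead or moribund 48 h after confinement at room temperature in tubes wall-coated from acetone (5 μg/cm² at 900 ppm). Scoring by heat challenge at 45-50 °C up to 5 min; immotile or uncoordinated ticks failing to climb count as affected.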

[13] = tested on: adult engorged female ticks (Rhipicephalus microplus); test: Rhipicephalus (Boophilus) microplus injection test; conditions: 168 h, egg deposition after 7 days, read-out: activity (efficacy: infertile eggs); for pest or weed control at 4 pg: application rate 4 pg/animal; for pest or weed control at 0.02 mg: application rate 20 μg/animal
In short: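 Compound in DMSO (10 mg per 0.5 mL, then diluted with DMSO to test concentration); 1 μL injected into the abdomen of each of five engorged females, then held in a climate chamber. Fertile egg deposition checked at 7 days; efficacy 100% = all eggs infertile, 0% = all fertile.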

[14] = tested on: Culex quinquefasciatus strain P00; test: Culex quinquefasciatus test (CULXFA surface treatment & contact assay); conditions: 24 hours after contact, read-out: efficacy (mortality); for mortality at 4 mg/m2: surface concentration 4 mg/m^2, exposure 30 minutes; for mortality at 20 mg/m2: surface concentration 20 mg/m^2, exposure 30 minutes
Experimental: Culex quinquefasciatus Test (CULXFA Surface Treatment & Contact Assay)
as §1
as §2, with “2 000” for “2000”, “mosquitoes” for “flies”, “Culex quinquefasciatus” for “Musca domestica”, “P00” for “WHO—N”

[15] = tested on: brown planthopper (Nilaparvata lugens); test: Nilaparvata lugens spray test; conditions: 96 h, application rate 500 g/ha, after 4 days
Experimental: Nilaparvata lugens—Spray Test
Solvent: 78.0 parts by weight of acetone • • 1.5 parts by weight of dimethylformamide
Emulsifier: alkylarylpolyglycol ether
To produce a suitable preparation of active compound, 1 part by weight of active compound is mixed with the stated amount of solvents and is diluted with water, containing an emulsifier concentration of 1000 ppm, to the desired concentration. Further test concentrations are prepared by dilution with emulsifier containing water.
Rice plants (Oryza sativa) are sprayed with a preparation of the active ingredient of the desired concentration and the plants are infested with the brown planthopper (Nilaparvata lugens).
After 4 days mortality in % is determined. 100% means all planthoppers have been killed and 0% means none of the planthoppers have been killed.

SMILES	mortality at 100 g/ha [1] [%]	pest or weed control at 100 g/ha [3] [%]	mortality at 100 g/ha [4] [%]	mortality at 20 mg/m2 [5] [%]	mortality at 500 g/ha [6] [%]	pest or weed control at 5 µg/cm2 [7] [%]	mortality at 100 ppm [8] [%]	mortality at 4 mg/m2 [9] [%]	pest or weed control at 500 g/ha [3] [%]	mortality at 4 mg/m2 [10] [%]	mortality at 20 mg/m2 [10] [%]	pest or weed control at 100 g/ha [11] [%]	pest or weed control at 500 g/ha [11] [%]	pest or weed control at 100 g/ha [12] [%]	pest or weed control at 5 µg/cm2, 500 g/ha [12] [%]	pest or weed control at 4 pg [13] [%]	pest or weed control at 0.02 mg [13] [%]	mortality at 4 mg/m2 [14] [%]	mortality at 500 g/ha [4] [%]	further results
COc1nc([C@H](C)NC(=O)c2cc(OC(F)(F)F)cc(S(C)(=O)=O)c2)n(-c2ccc(Cl)cn2)n1 [I-80]	90	100	100	80 to 100	100	–	–	–	–	–	–	–	–	–	–	–	–	–	–	mortality at 4 ppm [2]: 100%; mortality at 4 mg/m2 ([5]; surface concentration 4 mg/m^2, exposure 30 minutes): 80 to 100%; mortality at 100 g/ha [6]: 100%
C[C@H](NC(=O)c1csc(Cl)c1)c1ncnn1-c1ncccn1 [II-30]	–	–	–	–	–	90	100	80 to 100	100	80 to 100	80 to 100	100	100	100	100	100	100	–	–	mortality at 500 g/ha [1]: 90%
C[C@H](NC(=O)c1cc(Cl)cc(S(=O)(=O)C(F)F)c1)c1ncnn1-c1ccc(Cl)cn1 [II-37]	–	100	100	80 to 100	–	–	100	–	100	80 to 100	80 to 100	100	100	–	–	100	100	80 to 100	100	mortality at 20 mg/m2 [14]: 80 to 100%
Cc1nc([C@H](C)NC(=O)c2csc(Cl)c2)n(-c2ccc(C#N)cn2)n1 [II-8]	–	100	83	–	–	100	100	–	100	80 to 100	80 to 100	100	100	–	–	80	100	–	100	mortality at 20 mg/m2 [9]: 80 to 100%
CC(NC(=O)c1cc(Cl)cc(S(C)(=O)=O)c1)c1nc(Cl)nn1-c1ncccn1 (racemic) [I-29, 3-chloro-N-[1-(5-chloro-2-pyrimidin-2-yl-1,2,4-triazol-3-yl)ethyl]-5-methylsulfonyl-benzamide]	90	100	–	–	–	–	–	80 to 100	–	80 to 100	80 to 100	–	–	–	–	–	–	–	–	mortality at 4 ppm [2]: 100%; mortality at 20 mg/m2 [9]: 80 to 100%; mortality at 100 g/ha [6]: 90%
Cc1nc([C@H](C)NC(=O)c2cc(Cl)cc(S(=O)(=O)C(F)(F)F)c2)n(-c2ccc(Cl)cn2)n1 [II-14]	–	100	100	80 to 100	100	90	–	–	100	–	–	–	80	–	–	80	100	–	100	–
C[C@H](NC(=O)c1cncc(C2CC2)c1)c1ncnn1-c1ccc(C#N)cn1 [II-1]	–	–	–	–	–	–	–	80 to 100	–	80 to 100	–	–	–	–	–	–	–	–	100	–
C[C@H](NC(=O)c1cc(C(F)(F)F)cc(S(=O)(=O)C2CC2)c1)c1ncnn1-c1ccc(Cl)cn1 [II-46]	–	100	100	80 to 100	–	–	90	–	–	80 to 100	80 to 100	100	100	100	80	100	100	80 to 100	–	–
COc1nc([C@H](C)NC(=O)c2cc(C(F)F)cc(S(C)(=O)=O)c2)n(-c2ncc(Cl)cn2)n1 [I-88]	–	100	–	–	100	–	–	–	–	–	–	–	–	–	–	–	–	–	–	mortality at 500 g/ha [15]: 100%
Cc1nc([C@H](C)NC(=O)c2cc(C)n(C)n2)n(-c2ccc(C#N)cn2)n1 [II-6]	90	–	–	–	–	100	100	–	100	80 to 100	80 to 100	–	–	80	100	100	100	80 to 100	100	mortality at 500 g/ha [1]: 90%; mortality at 20 mg/m2 [14]: 80 to 100%
